Assays:
HIV-1 strain LAI = assay: Cellular anti-HIV assay, MT4 cells, MTT readout, wild type HIV-1 strain LAI; type: cell-based; conditions: for WT (pIC50 against wild type HIV-LAI strain): Table 4
Procedure: The compounds of the present invention were examined for anti-viral activity in a cellular assay. […] The cellular assay was performed according to the following procedure.

mock-infected MT4 cells = assay: in vitro
Procedure: (§1) HIV- or mock-infected MT4 cells were incubated for five days in the presence of various concentrations of the inhibitor. […] Cell viability is measured by measuring the concentration of MTT, a yellow, water soluble tetrazolium dye that is converted to a purple, water insoluble formazan in the mitochondria of living cells only. Upon solubilization of the resulting formazan crystals with isopropanol, the absorbance of the solution is monitored at 540 nm. The values correlate directly to the number of living cells remaining in the culture at the completion of the five day incubation. The inhibitory activity of the compound was monitored on the virus-infected cells and was expressed as IC50 and IC90. These values represent the amount of the compound required to protect 50% and 90%, respectively, of the cells from the cytopathogenic effect of the virus. […] The selectivity index (SI) (ratio CC50/IC50) is an indication of the selectivity of the anti-HIV activity of the inhibitor. Wherever results are reported as e.g. pIC50 or pCC50 values, the result is expressed as the negative logarithm of the result expressed as IC50 or CC50 respectively.
(§2) As a measure of the broad spectrum activity of the present compounds, the fold resistance (FR), defined as FR=IC50(mutant strain)/IC50(HIV-1 strain LAI), was determined.

mutant H = assay: Antiviral spectrum, fold resistance towards mutant H; type: cell-based; conditions: FR=IC50(mutant strain)/IC50(HIV-1 strain LAI)
Procedure: Because of the increasing emergence of drug resistant HIV strains, the present compounds were tested for their potency against clinically isolated HIV strains harboring several mutations. These mutations are associated with resistance to protease inhibitors and result in viruses that show various degrees of phenotypic cross-resistance to the currently commercially available drugs such as for instance saquinavir, ritonavir, nelfinavir, indinavir and amprenavir. The viral strains R13025, R13027, R13028, R13029, R13034, R13080, T13127 and R13363 contained mutations as indicated below in Table 3.

mutant A = type: cell-based; conditions: FR=IC50(mutant strain)/IC50(HIV-1 strain LAI)
Procedure: as §1
(§3) Because of the increasing emergence of drug resistant HIV strains, the present compounds were tested for their potency against clinically isolated HIV strains harboring several mutations. […] The viral strains R13025, R13027, R13028, R13029, R13034, R13080, T13127 and R13363 contained mutations as indicated below in Table 3.
as §2

mutant E = type: cell-based; conditions: FR=IC50(mutant strain)/IC50(HIV-1 strain LAI)
Procedure: as §1, §3, §2

[1] = Table 1, MT4 cells, five days, HIV-1 strain LAI
[2] = pCC50 value as determined with mock transfected cells
[3] = Table 2, MT4 cells, five days, HIV-1 strain LAI

| Structure (SMILES) | pIC50 (LAI) (HIV-1 strain LAI; [1]) | IC50 (HIV-1 strain LAI; Human immunodeficiency virus 1, 120 h, Table 1, MT4 cells, five days, HIV-1 strain LAI, read-out: pIC50 (LAI) (converted)) | Tox (pCC50) (mock-infected MT4 cells) | FR towards mutant H (mutant H) | WT (pIC50 against wild type HIV-LAI strain) (HIV-1 strain LAI) | FR value towards mutant A (mutant A) | FR towards mutant E (mutant E) | Tox (pCC50) (mock-infected MT4 cells; [2]) | pIC50 (LAI) (HIV-1 strain LAI; [3]) |
| --- | --- | --- | --- | --- | --- | --- | --- | --- | --- |
| COC(=O)Nc1nc2ccc(S(=O)(=O)N(CC(C)C)CC(O)C(Cc3ccccc3)NC(=O)OC3COC4OCCC34)cc2[nH]1 (stereo not drawn) [Compound 10] | 8.0 |  |  |  |  |  |  |  |  |
| CC(C)CN(C[C@@H](O)[C@H](Cc1ccccc1)NC(=O)O[C@H]1CCOC1)S(=O)(=O)c1ccc2ncn(CC(C)C)c2c1 [Compound 14] | 7.7 |  |  |  |  |  |  |  |  |
| CC(C)CN(C[C@@H](O)[C@H](Cc1ccccc1)NC(=O)O[C@H]1CO[C@H]2OCC[C@H]21)S(=O)(=O)c1ccc2ncn(CCN3CCCC3)c2c1 [Compound 20, [(1S,2R)-2-hydroxy-1-(phenyl-methyl)-3-[[[1-[2-(pyrrolidin-1-yl)ethyl]benzimidazol-6-yl]sulfonyl](2-methylpropyl)-amino]propyl]carbamic acid, [(3R,3aS,6aR)-hexahydrofuro[2,3-b]furan-3-yl]ester] |  | 0.0398 µM |  |  |  |  |  |  |  |
| COC(=O)Nc1nc2ccc(S(=O)(=O)N(CC(C)C)C[C@@H](O)[C@H](Cc3ccccc3)NC(=O)c3ccc(O)cc3C)cc2[nH]1 [Compound 25] | 7.1 |  | 4.3 | 4.6 | 7.1 | 1.2 | 1.3 |  |  |
| COC(=O)Nc1nc2ccc(S(=O)(=O)N(CC(C)C)C[C@@H](O)[C@H](Cc3ccccc3)NC(=O)COc3c(C)cc(CN)cc3C)cc2[nH]1 [Compound 26] | 7.0 |  |  | 47 | 7.0 | 6.3 | 6.8 | 4.86 |  |
| CC(=O)Nc1nc2ccc(S(=O)(=O)N(CC(C)C)C[C@@H](O)[C@H](Cc3ccccc3)NC(=O)O[C@H]3CCOC3)cc2[nH]1 [Compound 27] | 7.3 |  | <4 | 2.3 | 7.3 | 2.7 | 1.1 |  |  |
| CC(C)CN(CC(O)C(Cc1ccccc1)NC(=O)OC1COC2OCCC12)S(=O)(=O)c1ccc2ncn(Cc3ccncc3)c2c1 (stereo not drawn) [Compound 28] | 7.5 |  |  | 2.6 | 7.5 | 1.5 | 1.3 |  |  |
| Cc1cccc(C)c1OCC(=O)N[C@@H](Cc1ccccc1)[C@H](O)CN(CC(C)C)S(=O)(=O)c1ccc2nc[nH]c2c1 [Compound 29] | 7.1 |  | 4.21 | 78 | 7.1 | 14 | 13 |  |  |
| CC(C)CN(C[C@@H](O)[C@H](Cc1ccccc1)NC(=O)OCc1cncs1)S(=O)(=O)c1ccc2ncn(Cc3ccccc3)c2c1 [Compound 30] | 7.1 |  |  | 65 | 7.1 | 18 | 13 |  |  |
| Cc1cccc(C)c1OCC(=O)N[C@@H](Cc1ccccc1)[C@H](O)CN(CC(C)C)S(=O)(=O)c1ccc2ncn(C)c2c1 [Compound 31] | 7.2 |  | 4.24 | 209 | 7.2 | 13 | 9.5 |  |  |
| CC(C)CN(C[C@@H](O)[C@H](Cc1ccccc1)NC(=O)OCc1cncs1)S(=O)(=O)c1ccc2ncn(CC(C)C)c2c1 [Compound 32] | 7.4 |  | 4.2 | 41 | 7.4 | 18 | 13 |  |  |
| CC(C)CN(C[C@@H](O)[C@H](Cc1ccccc1)NC(=O)OCc1cncs1)S(=O)(=O)c1ccc2ncn(C)c2c1 [Compound 33] | 7.0 |  | <4 | 234 | 7.7 | 60 | 19 |  |  |
| CC(C)CN(C[C@@H](O)[C@H](Cc1ccccc1)NC(=O)OCc1cncs1)S(=O)(=O)c1ccc2ncn(CCc3ccccc3)c2c1 [Compound 34] | 7.0 |  |  | 46 | 7.0 | 32 | 17 | <4 |  |
| CC(C)CN(C[C@@H](O)[C@H](Cc1ccccc1)NC(=O)OCc1cccnc1)S(=O)(=O)c1ccc2nc[nH]c2c1 [Compound 35] | 7.0 |  |  | 148 | 7.0 | 91 | 17 | <4 |  |
| Cc1cccc(C)c1OCC(=O)N[C@@H](Cc1ccccc1)[C@H](O)CN(CC(C)C)S(=O)(=O)c1ccc2nc(N)[nH]c2c1 [Compound 36] | 6.5 |  | 4.19 | 17 | 6.5 | 4.4 | 3.1 |  |  |
| CC(C)CN(C[C@@H](O)[C@H](Cc1ccccc1)NC(=O)OC(C)(C)C)S(=O)(=O)c1ccc2nc(N)n(Cc3ccccc3)c2c1 [Compound 39] | 6.9 |  |  |  | 6.9 | 32 | 3.5 |  |  |
| CC(C)CN(C[C@@H](O)[C@H](Cc1ccccc1)NC(=O)O[C@H]1CO[C@H]2OCC[C@H]21)S(=O)(=O)c1ccc2nc(NCCN3CCCC3)n(CCc3ccccc3)c2c1 [Compound 40, [(1S,2R)-2-hydroxy-3-[[[[1-(phenethyl)-2-[2-(pyrrolidin-1-yl)ethylamino]]benzimidazol-6-yl]sulfonyl](2-methylpropyl)amino]-1-(phenylmethyl)propyl]carbamic acid, [(3R,3aS,6aR)-hexahydrofuro[2,3-b]furan-3-yl]ester] | 6.4 |  |  | 7.9 | 6.4 | 10 | 4.0 |  |  |
| CC(C)CN(CC(O)C(Cc1ccccc1)NC(=O)OC1COC2OCCC12)S(=O)(=O)c1ccc2nc(N)n(C)c2c1 (stereo not drawn) [Compound 41] | 6.6 |  | <4 | 1.5 | 6.6 | 1.4 | 1.4 |  |  |
| CC(C)CN(C[C@@H](O)[C@H](Cc1ccccc1)NC(=O)O[C@H]1CCOC1)S(=O)(=O)c1ccc2nc[nH]c2c1 [Compound 42] | 7.1 |  | <4 | 52 | 7.1 |  | 8.7 |  |  |
| Cc1cccc(C)c1OCC(=O)N[C@@H](Cc1ccccc1)[C@H](O)CN(CC(C)C)S(=O)(=O)c1ccc2ncn(CC(C)C)c2c1 [Compound 45] | 6.3 |  | <4 |  | 6.3 | 9.3 | 7.4 |  |  |
| Cc1c(N)cccc1C(=O)N[C@@H](Cc1ccccc1)[C@H](O)CN(CC(C)C)S(=O)(=O)c1ccc2nc[nH]c2c1 [Compound 46] | 6.4 |  |  |  | 6.4 |  |  | <4 |  |
| CC(C)CN(CC(O)C(Cc1ccccc1)NC(=O)OC1COC2OCCC12)S(=O)(=O)c1ccc2ncn(Cc3cncn3C)c2c1 (stereo not drawn) [Compound 51] | 6.2 |  |  | 2.1 | 6.2 | 2.8 | 0.89 |  |  |
| CC(C)CN(C[C@@H](O)[C@H](Cc1ccccc1)NC(=O)O[C@H]1CCOC1)S(=O)(=O)c1ccc2nc(N)[nH]c2c1 [Compound 53] | 6.0 |  | 4.05 |  | 6.0 |  |  |  |  |
| CC(C)CN(CC(O)C(Cc1ccccc1)NC(=O)OC1COC2OCCC12)S(=O)(=O)c1ccc2c(c1)ncn2CCN(C)C (stereo not drawn) [Compound 60] |  |  |  |  |  |  |  |  | 6.5 |
| Cc1cc(N)cc(C)c1OCC(=O)N[C@@H](Cc1ccccc1)[C@H](O)CN(CC(C)C)S(=O)(=O)c1ccc2c(c1)ncn2CCN(C)C [Compound 62] |  |  |  |  |  |  |  |  | 5.7 |

— patent US8143421B2, “Broadspectrum substituted benzimidazole sulfonamide HIV protease inhibitors” (priority 2002, dated 2012)
